Reference: patent US20110065663A1, “ANTI-CANCER COMBINATION THERAPY” (Katholieke Universiteit Leuven, K.U. Leuven R&D, priority 2008, published 2011)
“And” between values parts separate entries of the source, which are not always exact repeats. Equal values may be shown once. Read-outs that look alike come from different tables or passages of the source.

How the values were obtained:
Format in all cases: cell-based, human
[1] = system: MCF-7 cells; experiment: Flow cytometry, cell cycle arrest in MCF-7 cells
[2] = system: MCF-7 cells; experiment: Tumor cell proliferation assay, uninfected MCF-7 cells; settings: for IC50: Homo sapiens, uninfected MCF-7
Procedure: MCF-7 and MCF-7/HYOR cells were seeded in 48-well plates at 10,000 cells/cm^2. […] of the test compounds (5FU, 5′DFUR, CIdUrd, BrdUrd, IdUrd and TFT) with or without 10 μM TPi were added. The cells were incubated for another 4 days, trypsinized and counted by a Coulter counter (Analis, Suarlée, Belgium). In some experiments, the antibiotic plasmocin was added one or three days before addition of the test compounds.

[3] = system: OST.TK^− cells; experiment: Cytostatic activity in M. hyorhinis-infected osteosarcoma cells
[4] = system: MCF-7/HYOR cell cultures; experiment: Nucleoside metabolism experiments, distribution of drug-derived radiolabel in MCF-7/HYOR cell cultures; settings: 24 h; 1 μCi; FIG. 5
Procedure: Next, the cells were trypsinized, transferred to Eppendorf tubes and centrifuged for 10 minutes at 1,400 rpm. The pellet was resuspended in 1 ml absolute ice-cold methanol and kept on ice for 20 minutes. After centrifugation for 20 minutes at 13,000 rpm the pellet was washed twice with methanol, resuspended in methanol and transferred to scintillation vials containing 9 ml of Ready safe liquid scintillation reagent (‘Hisafe 3’, Perkin Elmer, Waltham, Mass.). The radioactivity was measured by a Liquid scintillation analyzer (2300 TR, Packard, Canberra, Australia). […] Next, the cells were incubated in 0.5 ml absolute ice-cold methanol and kept on ice for 20 minutes. After centrifugation for 20 minutes at 13,000 rpm, the supernatant was subjected to HPLC analysis. […] The amount of compound incorporated into nucleic acids was measured as described above.

[5] = system: MCF-7/HYOR cells; experiment: Flow cytometry, cell cycle arrest in MCF-7/HYOR cells
[6] = system: MCF-7 cells; experiment: Gemcitabine metabolite distribution in MCF-7 cells (HPLC); settings: 24 h; 1 μCi; FIG. 5
Procedure: MCF-7 and MCF-7/HYOR cells were seeded and treated with 1 μCi of nucleoside with and without TPi as described above. […] Next, the cells were incubated in 0.5 ml absolute ice-cold methanol and kept on ice for 20 minutes. After centrifugation for 20 minutes at 13,000 rpm, the supernatant was subjected to HPLC analysis. The nucleobases, nucleosides and nucleotides in the supernatant were separated by a Partisphere 10 SAX anion exchange column (Whatmann International Ltd., Maidstone, England) as described earlier (Balzarini J. et al., AIDS 2002; 16:2159-63), while the nucleobases and nucleosides present in the collected medium were separated using an RP-8 column. The amount of compound incorporated into nucleic acids was measured as described above.

[7] = system: MCF-7/HYOR cells; experiment: Tumor cell proliferation assay, M. hyorhinis-infected MCF-7 cells; settings: for IC50: Homo sapiens, MCF7, M. hyorhinis-infected MCF-7
Procedure: Mycoplasma hyorhinis (ATCC 17981) was obtained from the American Type Culture Collection (ATCC, Manassas, Va.). The freeze-dried bacteria were reconstituted by adding 1 ml of DMEM. […] The co-culture of MCF-7 cells and M. hyorhinis was maintained under the same conditions as the uninfected MCF-7 cells. […] The cells were incubated for another 4 days, trypsinized and counted by a Coulter counter (Analis, Suarlée, Belgium).

[8] = system: MDA-MB-231 cells; experiment: Cytostatic activity in M. hyorhinis-infected MDA-MB-231 breast carcinoma cells
[9] = IC50 in the absence of TPi to IC50 in the presence of TPi

IC50 ([7]; no TPi, no plasmocin, read-out: IC50 MCF-7/HYOR As such): 80 ± 28 nM
IC50 ([7]; with 10 μM TPi, read-out: IC50 MCF-7/HYOR +TPi (10 μM)): 5.8 ± 1.2 nM
Structure (SMILES): Nc1ccn([C@@H]2O[C@H](CO)[C@@H](O)C2(F)F)c(=O)n1 [gemcitabine, 2′,2′-difluorodeoxycytidine]
Concentration causing cell cycle arrest in the S-phase [1]: 0.2 µM
IC50 ([2]; MCF7, 96 h, no TPi, 4 days, read-out: IC50 MCF-7 As such): 7.3 ± 3.6 nM
IC50 ([2]; MCF7, with 10 μM TPi, read-out: IC50 MCF-7 +TPi (10 μM)): 6.3 ± 2.2 nM
Ratio (1)/(2) MCF-7 [2, 9]: 1.2
Reduction in the cytostatic activity upon M. hyorhinis infection [3]: 70 fold
Active (phosphorylated) metabolites of gemcitabine in M. hyorhinis infected MCF-7 cells [4]: no active metabolite can be detected
Higher concentration needed to cause a similar S-phase arrest than in MCF-7 [5]: 25 fold
Activation (phosphorylation) of gemcitabine in MCF-7 cells [6]: readily activated
Ratio (1)/(2) MCF-7/HYOR [7, 9]: 14
Reduction of cytostatic activity in infected MCF-7/HYOR compared to control MCF-7 cells ([7]; M. hyorhinis infection): 10 fold and 14 fold
Anti-proliferative activity in MCF-7/HYOR after three days pre-incubation with doxycycline ([7]; doxycycline, 3 days): restores
Anti-proliferative activity in MCF-7/HYOR after three days pre-incubation with plasmocin ([7]; plasmocin 25 μg/ml, 3 days): restores
Reduction in the cytostatic activity upon M. hyorhinis infection [8]: 40 fold
